Reference: article PMC6851324, “Design and development of stapled transmembrane peptides that disrupt the activity of G-protein–coupled receptor oligomers” (The Journal of Biological Chemistry, 2019)
Where two headings read alike, the source gives them in different places. Where a SMILES comes first, the peptide text is derived from it. Bridges are numbered along the chain shown (N, C = ends). [ ]: non-standard residue; d: D form. S5 = C=CCCC[C@](C)(N)C(=O)O; Nle = CCCC[C@H](N)C(=O)O

What was measured:
[1] = biological target: T1, trypsin from porcine pancreas (Sus scrofa, UniProt P00761); test: Proteolytic stability against trypsin; format: in vitro ADME; conditions: for half-life at 55.5 μM: pig, isolated enzyme trypsin
T1 construct: purchased Sigma; host or cells: porcine pancreas
T1 sequence (P00761 9-231): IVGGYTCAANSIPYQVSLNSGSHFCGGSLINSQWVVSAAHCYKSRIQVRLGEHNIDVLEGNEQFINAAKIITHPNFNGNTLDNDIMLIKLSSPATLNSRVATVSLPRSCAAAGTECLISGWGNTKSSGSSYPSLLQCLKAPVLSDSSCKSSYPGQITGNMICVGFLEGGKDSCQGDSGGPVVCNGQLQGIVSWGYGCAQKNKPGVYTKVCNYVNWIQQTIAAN
Experimental: (§1) Figure 4. Biophysical analysis of stapled peptides. A, amino acid sequence alignment of the targeted TM regions and disrupting peptides. Cys residues are in the reduced state. Blue bridges indicate the stapled amino acid residues. […] Yields, purity, and MALDI-TOF data are shown for the stapled peptides and negative control. B, CD analysis of 30–50 μM peptides at 20 °C. For proteolytic stability studies, the peptide solution (55.5 μM for trypsin and chymotrypsin and 11.1 μM for serum) was incubated in the presence of 0.55 μg/ml trypsin from porcine pancreas (E), α-chymotrypsin (F), or mouse serum (G) at 37 °C for the indicated times (indicated on the x axis). Data are mean ± S.E. (error bars) (n = 3) percentage of intact peptide normalized to t = 0. Proteolytic half-lives and putative cleavage sites (predicted using the Expasy bioinformatics server's model with a 50% probability of cleavage) are indicated at the bottom of each panel. Positive correlation between helicity and half-life in trypsin/chymotrypsin (C) or serum (D) was determined by two-tailed Pearson's correlation test. TEXT PRINTED IN THE PICTURE: (B) TM7-TAT: Ellipticity (%): 3.4 | (B) TM6-TAT: Ellipticity (%): 18.3 | (B) TM5-TAT: Ellipticity (%): 20.9 | (B) 8: Ellipticity (%): 58.3 | (B) 9: Ellipticity (%): 46.4 | (B) 10: Ellipticity (%): 36.8 | (B) 11: Ellipticity (%): 46 | (E) TM7-TAT: Half-life (min): 21; #Cleavage sites: 8 | (E) TM6-TAT: Half-life (min): 40; #Cleavage sites: 7 | (E) TM5-TAT: Half-life (min): 33; #Cleavage sites: 8 | (E) 8: Half-life (min): 307; #Cleavage sites: 0 | (E) 9: Half-life (min): 178; #Cleavage sites: 0 | (E) 10: Half-life (min): 75; #Cleavage sites: 6 | (E) 11: Half-life (min): 84; #Cleavage sites: 0 | (F) TM7-TAT: Half-life (min): 22; #Cleavage sites: 6 | (F) TM6-TAT: Half-life (min): 32; #Cleavage sites: 7 | (F) TM5-TAT: Half-life (min): 28; #Cleavage sites: 7 | (F) 8: Half-life (min): 425; #Cleavage sites: 4 | (F) 9: Half-life (min): 198; #Cleavage sites: 3 | (F) 10: Half-life (min): 63; #Cleavage sites: 2 | (F) 11: Half-life (min): 79; #Cleavage sites: 4 | (G) TM7-TAT: Half-life (hours): 0.46 | (G) TM6-TAT: Half-life (hours): 0.55 | (G) TM5-TAT: Half-life (hours): 0.81 | (G) 8: Half-life (hours): ≥18 | (G) 9: Half-life (hours): 14.7 | (G) 10: Half-life (hours): 11.7 | (G) 11: Half-life (hours): 5.3 DOUBTS OF THE COPYIST ABOUT THIS PICTURE: Panel A table (Yield, Rt, Purity, [M+H+] calc., [M+H+] Peak Found for 7-11) left out as synthesis and mass-spectrum characterisation data; uncertain whether [M+H+] calc. should count as a molecular weight
(§2) Dose–response curves were fitted using a four-parameter logistic nonlinear regression mode. Peptide stability data were fitted using a nonlinear regression mode for dissociation kinetics. All statistical tests, curve fitting, and graphing were performed using GraphPad Prism 8 (GraphPad Software, La Jolla, CA).
To 100 μl of peptide solution (100 μM, dissolved in ammonium bicarbonate buffer, pH 7.5), 60 μl of ammonium bicarbonate buffer (pH 7.5) was added, together with 20 μl of temperature-equilibrated (37 ± 1 °C) trypsin (5 μg/ml) from porcine pancreas (Sigma, 13,000–20,000 BAEE units/mg of protein). Peptides were incubated for 15, 30, 60, 120, 240, and 480 min, and then MeOH (HPLC Grade) + 0.05% TFA was added. The samples were then centrifuged (15,000 rpm), and the supernatant was analyzed, using Fmoc-Gly (10 μl, 0.2 mM) as an internal standard. The digestion at each time point was repeated three times to give the average values along with S.D. The amount of intact peptide that remained in the mixture was quantified by RP-HPLC. The experiment was repeated twice on different days.

[2] = biological target: T2, α-chymotrypsin from bovine pancreas (Bos taurus, UniProt P00766, DEL14-15/DEL147-148); test: Proteolytic stability against chymotrypsin; format: in vitro ADME; conditions: for half-life at 55.5 μM: cattle, isolated enzyme chymotrypsin
T2 construct: purchased Sigma Type II; host or cells: bovine pancreas
Experimental: as §1, §2
To 100 μl of peptide solution (100 μM, dissolved in ammonium bicarbonate buffer, pH 7.5), 60 μl of ammonium bicarbonate buffer (pH 7.5) was added, together with 20 μl of temperature-equilibrated (37 ± 1 °C) α-chymotrypsin (5 μg/ml) from bovine pancreas (Sigma, Type II, activity > 40 units/mg protein). Peptides were incubated for 15, 30, 60, 120, 240, and 480 min, and then MeOH (HPLC grade) + 0.05% TFA was added. The samples were then centrifuged (15,000 rpm), and supernatant was analyzed in a similar manner as described above. The experiment was repeated twice on different days.

Stability in mouse serum = format: in vitro ADME; conditions: 11.1 μM peptide, fresh nonsterile mouse serum (200 μl serum + 25 μl peptide solution, pH 7.5 buffer with 10% DMSO), 37 °C, quench 15% TCA in acetonitrile, HPLC, n = 3; read-out: Half-life (hours), mouse serum (converted)
Experimental: as §1, §2
To 200 μl of fresh nonsterile mouse serum was added 25 μl of peptide solution (100 μM, dissolved in ammonium bicarbonate buffer, pH 7.5, containing 10% DMSO), and the mixture was incubated at 37 °C. At the specified time, an aliquot of incubation mixture was withdrawn and quenched by the addition of an equal volume of 15% TCA in acetonitrile to precipitate out serum proteins over ice for 30 min. The mixture was then centrifuged at 13,500 rpm for 10 min, and the supernatant was collected and analyzed by HPLC in a similar manner as described previously. The experiment was repeated twice on different days.

5-HT2AR–CB1R heteromers = biological target: T3, 5-HT2AR–CB1R heteromers (Homo sapiens, UniProt P28223); test: NanoBiT BiLC peptide screening assay (LgBiT–CB1R + SmBiT–5-HT2AR); format: cell-based; conditions: HEK293 cells transiently expressing LgBiT–CB1R and SmBiT–5-HT2AR, preincubated 1 h with 4 μM peptide, luminescence normalized to vehicle, n ≥ 5
T3 construct: expressed in transfected cells; host or cells: HEK293 (ATCC CRL-1573), transient reverse transfection
T3 sequence (P28223 2-471, one chain of several): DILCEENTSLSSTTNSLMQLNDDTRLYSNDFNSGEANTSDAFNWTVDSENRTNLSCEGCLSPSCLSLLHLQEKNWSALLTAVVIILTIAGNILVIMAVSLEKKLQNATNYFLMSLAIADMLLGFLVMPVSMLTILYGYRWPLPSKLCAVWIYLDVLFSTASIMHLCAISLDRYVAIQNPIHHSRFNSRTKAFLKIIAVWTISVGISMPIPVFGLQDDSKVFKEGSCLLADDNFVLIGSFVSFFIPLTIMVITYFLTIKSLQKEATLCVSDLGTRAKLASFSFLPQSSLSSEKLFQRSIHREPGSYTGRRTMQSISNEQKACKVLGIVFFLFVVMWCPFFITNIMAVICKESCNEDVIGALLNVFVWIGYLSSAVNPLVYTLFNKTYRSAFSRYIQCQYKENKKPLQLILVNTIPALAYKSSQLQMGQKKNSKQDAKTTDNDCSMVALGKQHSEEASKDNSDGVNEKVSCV
Experimental: Figure 5. Identification of a small-stapled TM peptide disrupting 5-HT2AR–CB1R heteromers. A, schematic representation of the NanoBiT assay using N-terminally labeled constructs. In B, HEK293 cells transiently expressing the LgBT–CB1R and SmBiT–5-HT2AR complementary pairs were preincubated for 1 h at 37 °C with the indicated peptides (4 μM) or vehicle prior to luminescence recording. Data are mean RLU ± S.E. (error bars) (n ≥ 5) percentage of luminescence normalized to vehicle-treated cells. Statistical significance was evaluated by one-way ANOVA followed by Bonferroni post hoc tests, indicating significant differences over vehicle-treated cells (***, p ≤ 0.001; ****, p ≤ 0.0001) and for peptide 10 over its related peptides (####, p ≤ 0.0001). Peptide 10 potency (C) was evaluated as in A over increasing peptide concentrations (bottom) (n = 3). Alternatively, to assess the kinetics of the peptide 10–driven heteromer disruption (D), prior to the administration of the peptide, the cells were preincubated with substrate, and the luminescence was recorded over the following 30 min. Data are mean RLU ± S.E. (n ≥ 3) percentage of luminescence normalized to vehicle-treated cells.
To assess GPCR protein–protein interactions with the NanoBiT technology, HEK293 cells (50,000 cells/well) were seeded in poly-D-lysine–coated white clear bottom 96-well plates and reverse-transfected (see above) with the plasmids encoding the complementary NanoBiT hemiprotein fragments. For orientation screenings, cells were transfected with two different concentrations (50 and 100 ng/well) of each receptor alone or in combination with the investigated partner (see figure legends) in the presence of empty vector (pcDNA3.1(+)) to normalize the total amount of DNA/well. For studies in the presence of increasing nontagged receptor competitors, 100 ng of each receptor pair (CB1R LgBiT + CB1R SmBiT, 5-HT2AR LgBiT + 5-HT2AR SmBiT, and 5-HT2AR LgBiT + CB1R SmBiT) were co-transfected with increasing concentrations of the different nontagged constructs (from 0 to 300 ng/well), and the total amounts of DNA/well were normalized with empty vector (pcDNA3.1(+)). For the screening of stapled peptides, 50 ng/well of both LgBiT CB1R and SmBiT 5-HT2AR were reverse-transfected as detailed previously. 24 h post- transfection, the cell culture medium was removed, and the cells were starved in FBS-free DMEM for 4 h at 37 °C in a 5% CO2 humidified atmosphere. The cell culture medium was replaced by 100 μl of NanoBiT assay buffer (same as for cAMP measurements), and the plates were pre-equilibrated for 1 h at RT in the dark. When peptide pretreatment was required, peptides were added over this pre-equilibration step, except when studying inhibition kinetics, when the peptides were administered immediately after the baseline luminescence recording. 25 μl/well of a 5× solution of the Nano-Glo® live cell reagent containing the cell-permeable furimazine substrate dissolved in Nano-Glo® LCS dilution buffer were added, and the luminescence was immediately monitored in CLARIOstar® Multimode Plate Reader (BMG Labtech) with no lens (1-s integration time/well for 1 h every minute).
as §2

**Q.** For `CCCC[C@@H]1NC(=O)[C@H](Cc2ccc(O)cc2)NC(=O)[C@@](C)(NC(=O)[C@H](Cc2ccc(O)cc2)NC(=O)[C@@H](N)C(C)C)CCCC=CCCC[C@@](C)(C(=O)N[C@@H](CC(C)C)C(=O)N[C@@H](Cc2c[nH]c3ccccc23)C(=O)NCC(=O)N[C@@H](CCCNC(=N)N)C(=O)N[C@@H](CCCCN)C(=O)N[C@@H](CCCCN)C(=O)N[C@@H](CCCNC(=N)N)C(=O)N[C@@H](CCCNC(=N)N)C(=O)N[C@@H](CCC(N)=O)C(=O)N[C@@H](CCCNC(=N)N)C(=O)N[C@@H](CCCNC(=N)N)C(=O)N[C@@H](CCCNC(=N)N)C(N)=O)NC(=O)[C@H](Cc2ccc(O)cc2)NC1=O` [Peptide 10] (H-VY[S5]Y[Nle]Y[S5]LWGRKKRRQRRR-NH2; staple 3-7), which half-life at 55.5 μM ([1]; 55.5 μM peptide, 0.55 μg/ml trypsin from porcine pancreas, ammonium bicarbonate buffer pH 7.5, 37 °C, 15–480 min, intact peptide by RP-HPLC (Fmoc-Gly internal standard), n = 3, nonlinear regression fit, read-out: Half-life (min), trypsin) is on record?
**A.** Its half-life at 55.5 μM is 75 min.

**Q.** What about the “enhancement in trypsin resistance (half-life) over control peptides” value ([1]; versus TM7-TAT, TM6-TAT and TM5-TAT control peptides, trypsin 0.55 μg/ml) of the same compound?
**A.** Its value is 2–3 fold.

**Q.** And the half-life at 55.5 μM ([2]; 55.5 μM peptide, 0.55 μg/ml α-chymotrypsin from bovine pancreas, ammonium bicarbonate buffer pH 7.5, 37 °C, 15–480 min, intact peptide by RP-HPLC, n = 3, nonlinear regression fit, read-out: Half-life (min), α-chymotrypsin)?
**A.** Its half-life at 55.5 μM is 63 min.

**Q.** And the “chymotrypsin resistance improvement over full-length TM-TAT peptides” value ([2]; versus full-length TM7-TAT, TM6-TAT and TM5-TAT)?
**A.** Its value is ~2 fold.

**Q.** What about the half-life at 11.1 μM (Stability in mouse serum) of the same compound?
**A.** The half-life at 11.1 μM was 11.7 h.

**Q.** For `CCCC[C@@H]1NC(=O)[C@H](Cc2ccc(O)cc2)NC(=O)[C@@](C)(NC(=O)[C@H](Cc2ccc(O)cc2)NC(=O)[C@@H](N)C(C)C)CCC/C=C\CCC[C@@](C)(C(=O)N[C@H](C(=O)N[C@@H](CC(C)C)C(=O)N[C@@H](Cc2c[nH]c3ccccc23)C(N)=O)[C@@H](C)CC)NC1=O` [Peptide 9] (H-VY[S5]Y[Nle][S5]ILW-NH2; staple (Z) 3-6), which half-life at 55.5 μM ([1]; pH 7.5, Half-life (min), trypsin) is on record?
**A.** Its half-life at 55.5 μM is 178 min.

**Q.** And the half-life at 55.5 μM ([2]; pH 7.5)?
**A.** Its half-life at 55.5 μM is 198 min.

**Q.** What about the “half-life in chymotrypsin as stated in text” value ([2]; pH 7.5) of the same compound?
**A.** Its value is 5 to 6 h.

**Q.** And the “effect on NanoBiT luminescence (heteromer disruption)” value (5-HT2AR–CB1R heteromers)?
**A.** Its value is “neither the version lacking the TAT amino acid sequence, compound 9, nor the nonstaple, compound 11, peptides induced any change”.
